In US20240174618A1, “SUBSTITUTED (2-HETEROARYLOXYPHENYL)SULFONATES, SALTS THEREOF AND THEIR USE AS HERBICIDAL AGENTS” (Bayer Aktiengesellschaft, priority 2021, published 2024):

How the values were obtained:
Assay type in all cases: in vivo
[1] = test system: Echinochloa crus-galli (ECHCG); assay: A. Herbicidal pre-emergence efficacy, ECHCG; details: scored visually after about 3 weeks vs untreated controls
How it was run: (§1)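 Pre-emergence soil-surface spray in sandy loam pots, WP/EC in water plus 0.5% additive, 600 L/ha. Visual % damage rating after about 3 weeks in greenhouse vs. untreated; 0% = control-like, 100% = dead plants. Rates up to 1280 g/ha.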

[2] = test system: Stellaria media (STEME); assay: A. Herbicidal pre-emergence efficacy, STEME
How it was run: as §1

[3] = test system: Kochia scoparia (KCHSC); assay: B. Herbicidal post-emergence efficacy, KCHSC; details: for Post-emergence efficacy against KCHSC: 1280 g/ha; for Post-emergence efficacy against KCHSC in %: rated visually after about 3 weeks
How it was run: (§2)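 Visual percent efficacy relative to untreated controls (0% unaffected, 100% dead), scored roughly 3 weeks after foliar spraying of one-leaf-stage pot-grown plants with WP or EC preparations at application rates up to 1280 g/ha in 600 L/ha water containing 0.5% additive.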

[4] = test system: Setaria viridis (SETVI); assay: B. Herbicidal post-emergence efficacy, SETVI
How it was run: as §2

[5] = test system: Abutilon theophrasti (ABUTH); assay: C. Herbicidal pre-emergence efficacy, ABUTH; details: scored after about 3 weeks
From the text: (§3) Seeds of monocotyledonous and dicotyledonous weed plants and crop plants were placed in plastic or organic planting pots and covered with soil. The compounds of the invention, formulated in the form of wettable powders (WP) or as emulsion concentrates (EC), were then applied to the surface of the covering soil as aqueous suspension or emulsion with addition of 0.5% additive at a water application rate equivalent to 600 l/ha (converted). After the treatment, the pots were placed in a greenhouse and kept under good growth conditions for the test plants. After about 3 weeks, the efficacy of the preparations was scored visually in comparison with untreated controls as percentages. For example, • 100% efficacy=plants have died, • 0% efficacy=like untreated control plants.
(§4) Tables C1a to C14b below show the effects of selected compounds of the general formula (I) according to table 1 on various harmful plants at an application rate corresponding to 320 g/ha or less, which were obtained by the experimental procedure mentioned above.

[6] = test system: Polygonum convolvulus (POLCO); assay: C. Herbicidal pre-emergence efficacy, POLCO; details: scored after about 3 weeks
From the text: as §3, §4

[7] = test system: Amaranthus retroflexus (AMARE); assay: E. Herbicidal post-emergence efficacy, AMARE
How it was run: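 Greenhouse weeds were treated post-emergence at the one-leaf stage, 2-3 weeks after sowing in sandy loam, with WP or EC formulations sprayed as aqueous suspension/emulsion plus 0.5% additive at 600 l/ha, at 320 g/ha or less. Efficacy was rated visually after about 3 weeks versus untreated controls (100% = dead, 0% = like control).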

| Compound | Pre-emergence efficacy against ECHCG ([1]; 320 g/ha) [%] | Pre-emergence efficacy against ECHCG ([1]; 1280 g/ha) [%] | Pre-emergence efficacy against STEME ([2]; dosage 80 g/ha) [%] | Pre-emergence efficacy against STEME ([2]; dosage 320 g/ha) [%] | Pre-emergence efficacy against STEME ([2]; dosage 1280 g/ha) [%] | Post-emergence efficacy against KCHSC [3] [%] | Post-emergence efficacy against SETVI ([4]; 1280 g/ha) [%] | Pre-emergence efficacy against ABUTH ([5]; 320 g/ha) [%] | Pre-emergence efficacy against POLCO ([6]; 80 g/ha) [%] | Pre-emergence efficacy against POLCO ([6]; 320 g/ha) [%] | Post-emergence efficacy against AMARE in % ([7]; application rate 80 g/ha) [%] | Post-emergence efficacy against AMARE in % ([7]; application rate 320 g/ha) [%] | Pre-emergence efficacy against ECHCG ([1]; 80 g/ha) [%] | Post-emergence efficacy against KCHSC in % ([3]; 80 g/ha) [%] | Post-emergence efficacy against KCHSC in % ([3]; 320 g/ha) [%] | Post-emergence efficacy against SETVI ([4]; 320 g/ha) [%] | Pre-emergence efficacy against ABUTH ([5]; 80 g/ha) [%] |
| --- | --- | --- | --- | --- | --- | --- | --- | --- | --- | --- | --- | --- | --- | --- | --- | --- | --- |
| CC(C)CS(=O)(=O)Oc1ccccc1Oc1ncc(Cl)cn1 [Example I-7, [2-(5-Chloropyrimidin-2-yl)oxyphenyl] 2-methylpropane-1-sulfonate] | 100 | 100 | 90 | 90 | 100 | 90 | 90 | 100 | 90 | 100 | 90 | 100 |  |  |  |  |  |
| O=S(=O)(CCCCCl)Oc1ccccc1Oc1ncc(Cl)cn1 [Example I-15] | 100 | 100 | 100 | 100 | 100 | 100 | 100 | 100 | 80 | 100 | 100 | 100 | 100 | 100 | 100 |  |  |
| CC(C)CCS(=O)(=O)Oc1ccccc1Oc1ncc(Cl)cn1 [Example I-25] | 100 | 100 |  | 90 | 100 | 100 | 90 | 100 | 80 | 90 |  | 90 |  | 90 | 100 | 90 |  |
| C=CCCS(=O)(=O)Oc1c(F)cccc1Oc1ncc(Cl)cn1 [Example I-50] | 90 | 100 |  | 100 | 100 | 90 | 90 | 100 | 80 | 90 | 100 | 100 |  |  |  |  |  |
| COCCS(=O)(=O)Oc1c(F)cccc1Oc1ncc(Cl)cn1 [Example I-52] | 90 | 90 | 90 | 90 | 100 |  | 90 | 100 | 90 | 100 |  | 100 |  |  |  |  | 80 |
| O=S(=O)(CCC(F)=C(F)F)Oc1c(Cl)cccc1Oc1ncc(Cl)cn1 [Example I-73] |  | 90 |  | 100 | 100 | 100 | 90 | 90 |  | 90 | 80 | 100 |  | 90 | 100 |  |  |
